Earlier results, collected in patent US8460687B1, “Peeling compositions” (Cosmoceutical Research Center, priority 2009, dated 2013).
Like-named read-outs stand apart in the source and are kept apart here.

pH of aqueous solution (0.66 g/l): 2.68 | pH of aqueous solution (66 g/l): 0.9
SMILES: O=P(O)(O)O[C@H]1[C@H](OP(=O)(O)O)[C@@H](OP(=O)(O)O)[C@H](OP(=O)(O)O)[C@@H](OP(=O)(O)O)[C@H]1OP(=O)(O)O [Phytic acid, inisitol hexakisphosphate]
